# From ChEMBL document CHEMBL1201862, “PubChem BioAssay data set” (2004)
# The source made the active and inactive calls.
# Tests used:
# [1] = Luminescence Cell-Based Dose Response HTS to Identify Activators of Luciferase Translation or Activity in H4 […] Cells. [Related pubchem assays: 1829 (Project Summary), 1814 (Primary HTS)]; assay type: functional
# [2] = HepG2 cell cytotoxicity, dose response, cytotoxicity control, plate reader, cherry-pick, antagonist series (AID 743416); assay type: functional, cell-based
# [3] = HEK293 cell cytotoxicity, dose response, cytotoxicity control, plate reader, cherry-picked samples (AID 743446); assay type: functional, cell-based
# [4] = Luminescence Cell-Based Dose Retest to Confirm Inhibitors of Cancer Stem Cells. [Related pubchem assays (depositor defined):AID2717, AID2721]; assay type: functional; conditions: Homo sapiens
# INS1 = assay: beta cell apoptosis inhibitors, cytokine rescue, dose response, luminescence, retest (AID 449756); assay type: functional, cell-based; conditions: Rattus norvegicus;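 further: cell death triggered by IL-1 beta plus TNF-alpha plus IFN-gamma mixture; protective hits raise ATP signal compared with cytokine alone wells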
# [5] = A549 cell cytotoxicity, dose response, cytotoxicity control, plate reader, cherry-pick, antagonist series (AID 743412); assay type: functional, cell-based
# Protein RecA = molecular target: T1, Protein RecA (Mycobacterium tuberculosis, UniProt P9WHJ3); assay: Fluorescence Cell-Free Homogeneous Dose Retest to Identify Inhibitors of RecA-Intein Splicing Activity. [Related pubchem assays (depositor defined):AID2097, AID2223, AID489010, AID492950]; assay type: functional
# T1 sequence (P9WHJ3 whole entry): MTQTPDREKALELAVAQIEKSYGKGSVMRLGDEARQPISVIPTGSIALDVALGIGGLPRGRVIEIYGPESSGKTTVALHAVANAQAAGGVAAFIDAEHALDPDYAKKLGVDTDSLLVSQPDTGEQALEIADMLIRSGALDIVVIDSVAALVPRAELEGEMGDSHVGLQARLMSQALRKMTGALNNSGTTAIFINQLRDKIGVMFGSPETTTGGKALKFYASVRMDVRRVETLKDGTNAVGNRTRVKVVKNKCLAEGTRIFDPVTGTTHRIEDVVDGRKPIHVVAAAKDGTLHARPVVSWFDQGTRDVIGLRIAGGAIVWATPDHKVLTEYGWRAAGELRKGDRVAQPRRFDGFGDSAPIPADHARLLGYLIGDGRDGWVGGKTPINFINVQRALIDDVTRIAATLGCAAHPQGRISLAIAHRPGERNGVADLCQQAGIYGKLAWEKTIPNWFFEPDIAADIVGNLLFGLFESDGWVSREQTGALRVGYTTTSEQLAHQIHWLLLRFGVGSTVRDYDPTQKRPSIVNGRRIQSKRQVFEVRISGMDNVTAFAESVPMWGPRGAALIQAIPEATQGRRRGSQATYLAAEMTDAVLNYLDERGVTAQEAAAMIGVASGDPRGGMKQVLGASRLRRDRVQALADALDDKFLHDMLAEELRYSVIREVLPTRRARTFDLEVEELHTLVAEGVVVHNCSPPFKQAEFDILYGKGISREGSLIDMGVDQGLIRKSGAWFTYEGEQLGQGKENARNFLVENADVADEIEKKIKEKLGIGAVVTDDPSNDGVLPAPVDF
# [6] = Luminescence Cell-Based Dose Confirmation HTS to Identify Activators of 5'UTR Stem-Loop Driven Alpha-Synuclein mRNA Translation in H4 Neuroglioblastoma Cells. [Related pubchem assays: 1829 (Project Summary), 1814 (Primary HTS)]; assay type: functional
# H4 = assay: Luminescence Cell-Based Dose Response HTS to Identify Activators of 5'UTR Stem-Loop Driven Prion Protein mRNA Translation in H4 Neuroglioblastoma Cells. [Related pubchem assays: 1829 (Project Summary), 1814 (Primary HTS)]; assay type: functional; conditions: Homo sapiens
# Caspase-6 = Caspase-6 (Homo sapiens, UniProt P55212); assay: human caspase-6 inhibitors, dose response, biochemical, VEID-R110 fluorescence, cherry-pick (AID 720632)
# [7] = HEp-2 cell cytotoxicity, dose response, cytotoxicity control for RSV inhibitor project, HTS (AID 2410); assay type: functional; conditions: human respiratory syncytial virus
# Genome polyprotein = Genome polyprotein (dengue virus type 2, UniProt P29990); assay: Dengue-2 NS5 methyltransferase inhibitors, primary screen, biochemical, confirmation dose response (AID 588689); assay type: functional
# [8] = molecular target: E3 ubiquitin-protein ligase Mdm2 (Homo sapiens, UniProt Q00987); assay: enhancers of MDM2-luciferase reporter signal, concentration-effect titration, project on inhibitors of MDM2 ubiquitin ligase, cellular assay, luminescent readout, 384-well plate format (AID 1394); assay type: functional;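 further: MDM2 E3 inhibitors raise luminescence so EC50 is for signal enhancement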
# [9] = inhibitors of Vif binding to APOBEC3G peptide, primary screen, biochemical, TR-FRET, GST-Vif 1-94, biotin-A3G peptide, dose response retest (AID 1117319); assay type: functional;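 further: TR-FRET signal of purified GST-Vif binding a biotinylated A3G peptide; inhibitors lower the FRET signal by blocking Vif and A3G binding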
# Vero [10] = assay: cells; assay type: functional, cell-based; conditions: Chlorocebus sabaeus
# [11] = growth suppression of beta-catenin-knockout colon cells, dose response, cell-based, HCT116, human colon tumor (AID 1045); assay type: functional;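 further: HCT116 colon tumor cells with beta catenin knocked out; cells exposed to compound for 60 hours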
# [12] = molecular target: T2, Heat shock factor protein 1 (Mus musculus, UniProt P38532); assay: HSF1 potentiators in luciferase reporter cells, confirmation, cell-based, NIH3T3, luminescence, dose retest (AID 435004); assay type: functional;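 further: stress induced by proteasome inhibitor MG132 added 30 min after compound; luciferase reporter driven by HSF1 response element in NIH3T3 cells; actives raise luminescence as potentiators of the MG132 stress response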
# T2 sequence (P38532 whole entry): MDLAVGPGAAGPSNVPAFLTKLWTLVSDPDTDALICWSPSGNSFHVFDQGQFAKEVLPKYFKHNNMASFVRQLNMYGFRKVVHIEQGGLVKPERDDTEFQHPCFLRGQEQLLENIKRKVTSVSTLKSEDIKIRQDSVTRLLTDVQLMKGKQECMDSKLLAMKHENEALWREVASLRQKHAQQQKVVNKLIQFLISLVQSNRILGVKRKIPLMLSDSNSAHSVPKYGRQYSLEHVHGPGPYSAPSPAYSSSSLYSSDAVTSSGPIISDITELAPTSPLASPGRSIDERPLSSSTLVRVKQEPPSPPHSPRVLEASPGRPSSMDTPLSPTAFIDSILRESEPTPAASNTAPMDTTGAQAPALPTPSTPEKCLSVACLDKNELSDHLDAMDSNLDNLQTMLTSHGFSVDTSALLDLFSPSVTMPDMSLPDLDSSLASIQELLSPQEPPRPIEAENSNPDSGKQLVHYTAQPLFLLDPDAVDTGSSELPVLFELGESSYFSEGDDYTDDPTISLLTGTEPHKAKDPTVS
# [13] = ADAM10 inhibitors, peptide cleavage, dose response, biochemical, QFRET (AID 743254);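 further: ADAM10 enzyme with the DM2 quenched FRET peptide as substrate; EDANS fluorescence gain as the protease cuts the substrate; inhibitor potency against ADAM10 proteolytic activity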
# Vero [14] = assay: cells; assay type: functional; conditions: Chlorocebus sabaeus
# [15] = molecular target: Disintegrin and metalloproteinase domain-containing protein 17 (Homo sapiens, UniProt P78536); assay: ADAM17 protease inhibitors, dose response, counter-screen for ADAM10 exosite inhibitor project, biochemical, quenched FRET substrate (AID 743253)
# [16] = growth suppression of PTEN-null colon cells, dose response, cell-based, HCT116 PTEN knockout (AID 1047); assay type: functional;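 further: HCT116 colon tumor cells with PTEN knocked out; cells exposed to compound for 60 hours before readout; potency for loss of cell viability measured by luminescence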
# [17] = molecular target: Mitogen-activated protein kinase 10 (Homo sapiens, UniProt P53779); assay: Dose response biochemical screening assay for inhibitors of c-Jun N-Terminal Kinase 3 (JNK3). [Related pubchem assays: 746 ]
# [18] = cytotoxicity toward NIH3T3 fibroblasts, dose response, counter-screen, cell-based, ATP luminescence, mouse fibroblasts (AID 2010); assay type: functional;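 further: cells exposed to compound for about 90 hours before reading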
# [19] = inhibitors of intracellular T. cruzi replication, confirmation, NIH3T3 host cells, beta-gal luminescence (AID 2044); assay type: functional, cell-based;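 further: intracellular parasites grown in NIH/3T3 mouse fibroblasts as host cells; luminescent beta-galactosidase reporter signal from transgenic T. cruzi replicating inside host cells; inhibitors lower the luminescence signal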
# Sequence of Caspase-6 (P55212 24-179 limits assumed): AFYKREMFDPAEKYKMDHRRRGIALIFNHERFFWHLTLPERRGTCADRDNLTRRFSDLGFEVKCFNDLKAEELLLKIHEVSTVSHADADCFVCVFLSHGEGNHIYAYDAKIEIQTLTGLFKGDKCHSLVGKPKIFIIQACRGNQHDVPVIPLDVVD
# Sequence of Caspase-6 (P55212 194-293 limits assumed): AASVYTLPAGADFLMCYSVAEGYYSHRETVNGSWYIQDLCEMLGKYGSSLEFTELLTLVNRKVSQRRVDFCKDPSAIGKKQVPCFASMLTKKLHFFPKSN
# Sequence of Mitogen-activated protein kinase 10 (P53779 whole entry): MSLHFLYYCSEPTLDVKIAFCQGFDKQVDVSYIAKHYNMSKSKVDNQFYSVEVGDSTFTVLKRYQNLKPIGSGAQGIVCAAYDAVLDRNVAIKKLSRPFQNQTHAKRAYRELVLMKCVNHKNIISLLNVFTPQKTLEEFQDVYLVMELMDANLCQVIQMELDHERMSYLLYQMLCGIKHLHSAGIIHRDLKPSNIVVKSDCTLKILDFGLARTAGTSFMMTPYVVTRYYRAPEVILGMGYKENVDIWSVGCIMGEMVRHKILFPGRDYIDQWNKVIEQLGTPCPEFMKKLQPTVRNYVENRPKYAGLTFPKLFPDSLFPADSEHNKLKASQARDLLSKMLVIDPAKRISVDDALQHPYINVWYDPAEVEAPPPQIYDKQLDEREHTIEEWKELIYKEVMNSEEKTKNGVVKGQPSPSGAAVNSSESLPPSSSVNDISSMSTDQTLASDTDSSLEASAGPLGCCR
# Sequence of Disintegrin and metalloproteinase domain-containing protein 17 (P78536 whole entry, the tested form may be a part): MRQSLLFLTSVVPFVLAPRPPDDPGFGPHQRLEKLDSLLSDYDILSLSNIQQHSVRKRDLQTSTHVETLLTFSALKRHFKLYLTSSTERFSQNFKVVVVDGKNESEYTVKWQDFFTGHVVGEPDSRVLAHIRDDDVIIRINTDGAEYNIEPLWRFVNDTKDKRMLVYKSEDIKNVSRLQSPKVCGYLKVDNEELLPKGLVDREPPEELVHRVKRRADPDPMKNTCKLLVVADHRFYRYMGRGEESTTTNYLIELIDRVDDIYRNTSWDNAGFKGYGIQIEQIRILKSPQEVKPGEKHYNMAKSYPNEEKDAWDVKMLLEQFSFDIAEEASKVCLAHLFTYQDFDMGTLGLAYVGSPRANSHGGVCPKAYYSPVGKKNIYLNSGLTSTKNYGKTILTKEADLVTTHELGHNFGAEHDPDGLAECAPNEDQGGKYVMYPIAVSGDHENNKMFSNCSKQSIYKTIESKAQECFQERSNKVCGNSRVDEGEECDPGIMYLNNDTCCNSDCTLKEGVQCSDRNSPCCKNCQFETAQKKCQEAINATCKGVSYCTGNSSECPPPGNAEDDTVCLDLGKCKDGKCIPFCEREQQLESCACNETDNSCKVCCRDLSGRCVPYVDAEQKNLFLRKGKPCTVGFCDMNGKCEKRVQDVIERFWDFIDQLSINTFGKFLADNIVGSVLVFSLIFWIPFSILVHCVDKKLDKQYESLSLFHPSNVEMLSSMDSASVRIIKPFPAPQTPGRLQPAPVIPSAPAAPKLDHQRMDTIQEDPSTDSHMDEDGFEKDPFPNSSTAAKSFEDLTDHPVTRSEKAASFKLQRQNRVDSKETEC
# Sequence of Genome polyprotein (P29990 2492-3391 limits assumed): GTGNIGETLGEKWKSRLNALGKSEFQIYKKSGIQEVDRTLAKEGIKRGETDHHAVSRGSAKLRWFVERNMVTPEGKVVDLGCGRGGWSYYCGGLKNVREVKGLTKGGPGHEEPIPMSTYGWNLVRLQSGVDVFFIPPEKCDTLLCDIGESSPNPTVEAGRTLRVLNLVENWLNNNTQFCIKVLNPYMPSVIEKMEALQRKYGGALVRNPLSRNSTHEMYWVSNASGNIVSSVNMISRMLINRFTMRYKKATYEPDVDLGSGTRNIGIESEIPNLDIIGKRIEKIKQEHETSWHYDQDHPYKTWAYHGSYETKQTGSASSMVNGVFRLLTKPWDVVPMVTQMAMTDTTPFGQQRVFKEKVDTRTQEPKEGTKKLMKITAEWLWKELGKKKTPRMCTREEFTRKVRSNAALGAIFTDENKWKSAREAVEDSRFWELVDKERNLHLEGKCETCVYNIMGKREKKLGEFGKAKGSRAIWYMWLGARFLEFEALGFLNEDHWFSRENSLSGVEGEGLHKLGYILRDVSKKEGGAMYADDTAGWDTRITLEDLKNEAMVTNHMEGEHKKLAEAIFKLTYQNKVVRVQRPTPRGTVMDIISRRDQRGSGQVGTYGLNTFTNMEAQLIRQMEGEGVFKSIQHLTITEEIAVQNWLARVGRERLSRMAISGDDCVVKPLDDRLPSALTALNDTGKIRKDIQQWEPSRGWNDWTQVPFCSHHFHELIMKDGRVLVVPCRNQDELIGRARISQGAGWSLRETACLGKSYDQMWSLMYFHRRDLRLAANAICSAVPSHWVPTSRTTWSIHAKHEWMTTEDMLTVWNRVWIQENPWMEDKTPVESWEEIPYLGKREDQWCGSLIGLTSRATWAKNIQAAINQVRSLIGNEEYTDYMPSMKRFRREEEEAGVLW
# Sequence of E3 ubiquitin-protein ligase Mdm2 (Q00987 whole entry): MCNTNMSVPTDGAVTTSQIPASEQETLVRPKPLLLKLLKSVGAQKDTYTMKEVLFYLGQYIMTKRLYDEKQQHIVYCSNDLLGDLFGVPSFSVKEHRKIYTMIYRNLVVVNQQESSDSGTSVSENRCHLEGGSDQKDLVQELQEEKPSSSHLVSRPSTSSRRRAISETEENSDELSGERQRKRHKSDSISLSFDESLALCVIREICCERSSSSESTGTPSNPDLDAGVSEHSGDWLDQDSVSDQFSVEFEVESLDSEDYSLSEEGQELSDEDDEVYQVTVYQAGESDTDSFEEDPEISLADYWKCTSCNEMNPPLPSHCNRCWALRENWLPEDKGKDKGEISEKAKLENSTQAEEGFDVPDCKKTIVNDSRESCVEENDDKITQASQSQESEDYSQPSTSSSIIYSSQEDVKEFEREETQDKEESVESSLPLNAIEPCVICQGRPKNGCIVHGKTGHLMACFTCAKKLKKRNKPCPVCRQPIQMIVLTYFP
structure (smiles),measurement,setting,value
COc1cc(NC2CCCCC2O)c2nc(-c3ccc(Cl)cc3)ccc2c1 (stereo not drawn),EC50,[1],12.9 µM (active)
same,AC50,[2],26.3 µM (active)
same,AC50,[3],> 52 µM (inactive)
same,AC50,[4],2.07 µM (active)
same,AC50,INS1,3.57 µM (active)
same,AC50,[5],20.3 µM (active)
same,EC50,Protein RecA,0.0728 µM (active)
same,EC50,[6],9.15 µM (active)
same,EC50,H4,> 60 µM (not active)
CCCCC(NC(=O)Cc1c(C)c2cc3c(-c4ccccc4)coc3c(C)c2oc1=O)C(=O)O (stereo not drawn),AC50,Caspase-6,22 µM (active)
same,CC50,[7],> 50 µM (active)
same,IC50,cells,45.9 µM (active)
same,IC50,Genome polyprotein,51 µM (active)
COc1cc2c(cc1OC)CN(C(=O)c1ccco1)CC2,EC50,[8],11.1 µM (not active)
O=C(c1cc2ccccc2oc1=O)N1CCN(c2ccc(N3CCOCC3)nn2)CC1,IC50,[9],> 100 µM (active)
CCOC(=O)/C(=C\c1ccccc1)NC(=O)c1ccccc1,IC50,[9],> 100 µM (active)
Cc1ccc(N(CC(=O)NCCc2ccc(F)cc2)S(=O)(=O)c2ccc(Cl)c([N+](=O)[O-])c2)c(C)c1,IC50,Vero [10],> 25 µM (active)
same,EC50,[11],8.87 µM (active)
same,EC50,[12],17.1 µM (active)
same,IC50,[13],> 69.5 µM (inactive)
same,CC50,Vero [14],18.4 µM (active)
same,IC50,[15],> 69.5 µM (inactive)
same,EC50,[16],14 µM (active)
CC(=O)c1c(C)[nH]c(C(=O)OCn2nnc3ccccc3c2=O)c1C,IC50,[17],34.2 µM (not active)
O=C(Nc1nccs1)c1ccc(Br)o1,IC50,[17],> 31 µM (not active)
O=C(N/N=C/c1ccc([N+](=O)[O-])o1)C1CC1,EC50,[18],> 60 µM (not active)
same,AC50,Caspase-6,10 µM (active)
same,EC50,[19],0.36 µM (active)
